# Publication PMC4449328 (European neuropsychopharmacology : the journal of the …, 2014)
# Experiments:
# D3 receptor [1] = target: T1, D3 receptor (Homo sapiens, UniProt P35462); conditions: read-out: Ki±SEM; binding data previously reported; ref Newman et al. (2003); cited from earlier work
# D3 dopamine receptor = D3 dopamine receptor (Homo sapiens, UniProt P35462); assay: β-arrestin recruitment assay; format: cell-based
# D3 receptor [2] = target: T1, D3 receptor; assay: [3H]methylspiperone saturation binding; conditions: 1 μM sulpiride (Fig. 6)
# Chain of D3 dopamine receptor (P35462 whole entry): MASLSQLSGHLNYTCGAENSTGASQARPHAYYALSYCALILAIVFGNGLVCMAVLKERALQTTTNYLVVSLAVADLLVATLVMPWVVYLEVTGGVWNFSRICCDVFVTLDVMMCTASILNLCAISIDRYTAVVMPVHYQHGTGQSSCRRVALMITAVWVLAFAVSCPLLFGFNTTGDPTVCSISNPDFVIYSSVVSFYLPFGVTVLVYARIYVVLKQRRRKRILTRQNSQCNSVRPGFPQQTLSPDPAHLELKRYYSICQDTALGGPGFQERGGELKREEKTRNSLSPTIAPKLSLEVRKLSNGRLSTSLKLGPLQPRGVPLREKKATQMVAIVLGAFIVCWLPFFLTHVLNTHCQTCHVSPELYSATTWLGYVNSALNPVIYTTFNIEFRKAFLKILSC
# T1 sequence (P35462 whole entry): as above
"Hill slope of Schild plot (D3 dopamine receptor; curve-shift of dopamine concentration response (Fig. 7), n=3–5, mean±SEM)",Hill slope of Schild plot (D3 dopamine receptor; curve-shift of dopamine concentration response (Fig. 11)),Bmax of [3H]methylspiperone in presence of compound (D3 receptor [2]),SMILES,Ki (D3 receptor [1]) [nM]
–,–,–,O=C(NCCCCN1CCN(c2cccc(Cl)c2Cl)CC1)c1ccc(-c2ccccn2)cc1 [CJB 090],0.6 ± 0.2
1.04±0.05,1.04±0.05,"6,190 fmol/mg",CCN1CCCC1CNC(=O)c1cc(S(N)(=O)=O)ccc1OC (stereo not shown) [sulpiride],–
